Test results reported in publication PMC9234671, “Molecular determinants of αVβ5 localization in flat clathrin lattices – role of αVβ5 in cell adhesion and proliferation” (Journal of Cell Science, 2022).
Entries after “also recorded” stand apart in the source; their conditions may differ. Ends that are not written are not given here.

How the values were obtained:
[1] = biological target: T1, talin-1 head domain (THD1) (Homo sapiens, UniProt Q9Y490); experiment: Microscale thermophoresis (MST), talin-1 head domain; format: binding; conditions: Atto488-labeled β5 cytoplasmic tail 50–200 nM, 20 mM Tris-HCl pH 7.5, 200 mM NaCl, 1 mM TCEP, 0.05% Tween-20, mean±s.d., n≥5
T1 construct: pCoofy17-THD1 (1-405) constructs were transformed into Rosetta2(DE3) cells; His-SUMO (N, cleaved yes); made in house; host or cells: E. coli Rosetta2(DE3)
From the text: Fig. 2. Adaptor protein binding to integrin β subunits. (A) Colocalization of integrin chimeras fused to the promiscuous biotin ligase BirA* (green in merge) with vinculin (red; left panels) or clathrin (red; right panels) in PA-JEB/β4 keratinocytes. Actin is shown in blue. Nuclei are stained with DAPI (cyan). Scale bars: 20 μm. (B) Representative western blots of BioID assays performed using the integrin chimeras shown in A. Quantifications of ARH, Numb and talin signal intensities normalized to streptavidin-HRP levels are shown (n=3; bars show mean±s.d.). (C) Representative western blots of pulldown assays (from two repeats) using synthetic integrin β cytoplasmic domains in RAC-11P cell lysates. […]
pCoofy17-THD1 (1-405) constructs were transformed into Rosetta2(DE3) cells and his-SUMO-THD1 proteins were expressed for 16 h at 20°C after induction with 0.4 mm IPTG. Cells were harvested and resuspended in 25 mM Tris-HCl pH 8.0, 10 mM imidazole, 200 mM NaCl, 1 mM TCEP and 5 μg ml^−1 DNase, and lysed by sonication. […]
All MST measurements were performed on a Monolith NT.115 red-blue (Nanotemper, Munich, Germany) using premium-coated capillaries to reduce non-specific interaction of the proteins with the glass surface. […] Data was analyzed using the MO Affinity Analysis Software (Nanotemper). […]

full-length human ARH = biological target: T2, full-length human ARH (Homo sapiens, UniProt Q5SW96); experiment: Microscale thermophoresis (MST), ARH; format: binding
T2 construct: The full-length human ARH gene was cloned into the pETNKI-6xhis-3C-LIC vector; made in house; host or cells: E. coli BL21(DE3)
T2 sequence (Q5SW96 1-308): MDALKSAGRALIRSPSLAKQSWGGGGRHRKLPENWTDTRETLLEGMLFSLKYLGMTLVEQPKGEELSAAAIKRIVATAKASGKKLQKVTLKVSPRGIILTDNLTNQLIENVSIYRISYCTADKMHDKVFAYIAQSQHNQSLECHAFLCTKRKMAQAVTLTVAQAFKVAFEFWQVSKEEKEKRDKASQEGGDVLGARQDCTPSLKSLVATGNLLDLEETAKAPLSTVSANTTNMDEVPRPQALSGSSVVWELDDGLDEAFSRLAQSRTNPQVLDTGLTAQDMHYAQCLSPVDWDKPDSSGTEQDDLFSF
From the text: (§1) Fig. 2. Adaptor protein binding to integrin β subunits. (A) Colocalization of integrin chimeras fused to the promiscuous biotin ligase BirA* (green in merge) with vinculin (red; left panels) or clathrin (red; right panels) in PA-JEB/β4 keratinocytes. Actin is shown in blue. Nuclei are stained with DAPI (cyan). Scale bars: 20 μm. (B) Representative western blots of BioID assays performed using the integrin chimeras shown in A. Quantifications of ARH, Numb and talin signal intensities normalized to streptavidin-HRP levels are shown (n=3; bars show mean±s.d.). (C) Representative western blots of pulldown assays (from two repeats) using synthetic integrin β cytoplasmic domains in RAC-11P cell lysates.
The full-length human ARH gene was cloned into the pETNKI-6xhis-3C-LIC vector ([Luna-Vargas et al., 2011]) and 6xhis–ARH protein was produced in Bl21(DE3) E. coli cells. Cells were grown at 37°C until an optical density at 600 nm (OD600) of 0.6 was reached. Temperature was reduced to 30°C and protein was expressed upon induction with 0.4 mM IPTG for 3.5 h. Cells were harvested and resuspended in lysis buffer (20 mM HEPES, pH 7.5, 200 mM NaCl, 1 mM TCEP and 5 μg ml^−1 DNase). After sonication, cell debris and insoluble proteins were removed by centrifugation (21,000 g for 30 min). 6xhis–ARH was purified from the soluble fraction using nickel Sepharose beads and eluted in 20 mM HEPES, pH 7.5, 200 mM NaCl, 1 mM TCEP and 250 mM imidazole. Fractions containing 6xhi–ARH were further purified on a SEC650 size exclusion column (Bio-Rad), equilibrated with 20 mM HEPES, pH 7.5, 100 mM NaCl and 1 mM TCEP.
All MST measurements were performed on a Monolith NT.115 red-blue (Nanotemper, Munich, Germany) using premium-coated capillaries to reduce non-specific interaction of the proteins with the glass surface. Both interaction partners (ligand and receptor) were transferred into MST buffer (20 mM Tris-HCl pH 7.5, 200 mM sodium chloride, 1 mM TCEP and 0.05% Tween-20) to avoid artifacts derived from buffer mismatches. […] Data was analyzed using the MO Affinity Analysis Software (Nanotemper).

Numb-PTB (20-175) = biological target: T3, Numb-PTB (20-175) (Homo sapiens, UniProt P49757); experiment: Microscale thermophoresis (MST), Numb; format: binding
T3 construct: A pETNKI-6xhis-3C-Numb-PTB (20-175) construct was expressed in Rosetta2 (DE3) cells; 6xHis-3C (N, cleaved yes); made in house; host or cells: E. coli Rosetta2 (DE3)
T3 sequence (P49757 20-175): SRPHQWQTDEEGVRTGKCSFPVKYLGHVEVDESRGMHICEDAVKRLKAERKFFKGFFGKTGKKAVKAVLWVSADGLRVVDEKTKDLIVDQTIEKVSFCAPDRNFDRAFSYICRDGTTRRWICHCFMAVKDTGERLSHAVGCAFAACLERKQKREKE
From the text: as §1
A pETNKI-6xhis-3C-Numb-PTB (20-175) construct was expressed in Rosetta2 (DE3) cells for 18 h at 20°C. Cells were lysed (25 mM Tris-HCl pH 8.0, 10 mM imidazole, 200 mM NaCl, 1 mM TCEP, 5 μg/ml DNase) and sonicated, after which insoluble proteins and cell debris were removed by centrifugation (21,000 g for 30 min at 4°C). Soluble lysate was applied to a nickel Sepharose column and beads were washed with wash buffer (lysis buffer without DNase) before protein was eluted in wash buffer supplemented with 250 mM imidazole. The 6xhis tag was cleaved off by his-3C protease during dialysis against 25 mM Tris-HCl pH 8.0, 100 mM NaCl, 1 mM TCEP, 16 h at 4°C. Elution fractions were pooled, diluted with six volumes of 20 mM HEPES pH 7.5, 1 mM TCEP and applied to a 1 ml Resource S cation-exchange column (Cytiva). Protein was eluted in a NaCl gradient (50–700 mM) in 25 mM HEPES (pH 7.5). 6xhis-Numb-PTB was concentrated and further purified by size-exclusion chromatography (SEC70 column, Bio-Rad) in 25 mM Tris-HCl pH 8.0, 200 mM NaCl and 1 mM TCEP.
All MST measurements were performed on a Monolith NT.115 red-blue (Nanotemper, Munich, Germany) using premium-coated capillaries to reduce non-specific interaction of the proteins with the glass surface. […] Data was analyzed using the MO Affinity Analysis Software (Nanotemper).

SNX17 = experiment: Peptide pulldown, SNX17; format: binding; conditions: desthiobiotin tail peptide on streptavidin beads, RAC-11P lysate, 4°C, 4 h; western blot; two repeats
Experimental: (§2) Peptide pulldowns were carried out as previously described ([Böttcher et al., 2012]) with the mouse β1 wild-type cytoplasmic tail peptide ([…]-OH) and a scrambled peptide ([…]-OH), mouse β3 wild-type tail peptide ([…]-OH), mouse β5 wild-type tail peptide ([…]-OH), β5 Δ8aa tail peptide ([…]-OH) and scrambled peptide […].
(§3) The tail peptides were synthesized de novo with a desthiobiotin on the N-terminus, coupled to Dynabeads MyOne streptavidin C1 (10 mgml^−1, Invitrogen) and incubated with RAC-11P cell lysates (prepared with M-PER reagent, Thermo Fisher Scientific) at 4°C with rotation for 4 h. After three washes with wash buffer (M-PER diluted 1:1 with PBS), bound proteins were eluted in 2× Laemmli buffer at 95°C for 5 min and separated on an 8% SDS-PAGE gel.

Numb = experiment: Peptide pulldown, Numb; format: binding; conditions: desthiobiotin tail peptide on streptavidin beads, RAC-11P lysate, 4°C, 4 h; western blot; two repeats
Experimental: as §2, §3

[2] = tested on: cytoskeletal or clathrin adaptor proteins; experiment: Peptide pulldown, cytoskeletal or clathrin adaptor proteins; format: binding; conditions: desthiobiotin tail peptide on streptavidin beads, RAC-11P lysate, 4°C, 4 h; western blot; two repeats
Experimental: as §2, §3

ARH = experiment: Peptide pulldown, ARH; format: binding; conditions: desthiobiotin tail peptide on streptavidin beads, RAC-11P lysate, 4°C, 4 h; western blot; two repeats
Experimental: as §2, §3

[3] = biological target: Atto488-labeled integrin β5 cytoplasmic tail; experiment: MST; 50–200 nM Atto488-labeled integrin-β cytoplasmic tail as ligand; 20 mM Tris-HCl pH 7.5, 200 mM sodium chloride, 1 mM TCEP, 0.05% Tween-20; Monolith NT.115
[4] = MST, Atto488-labeled β5 cytoplasmic tail 50–200 nM, 20 mM Tris-HCl pH 7.5, 200 mM NaCl, 1 mM TCEP, 0.05% Tween-20, mean±s.d., n≥5
[5] = concentration range tested up to 75 µM for β3

T1 sequence (Q9Y490 1-405): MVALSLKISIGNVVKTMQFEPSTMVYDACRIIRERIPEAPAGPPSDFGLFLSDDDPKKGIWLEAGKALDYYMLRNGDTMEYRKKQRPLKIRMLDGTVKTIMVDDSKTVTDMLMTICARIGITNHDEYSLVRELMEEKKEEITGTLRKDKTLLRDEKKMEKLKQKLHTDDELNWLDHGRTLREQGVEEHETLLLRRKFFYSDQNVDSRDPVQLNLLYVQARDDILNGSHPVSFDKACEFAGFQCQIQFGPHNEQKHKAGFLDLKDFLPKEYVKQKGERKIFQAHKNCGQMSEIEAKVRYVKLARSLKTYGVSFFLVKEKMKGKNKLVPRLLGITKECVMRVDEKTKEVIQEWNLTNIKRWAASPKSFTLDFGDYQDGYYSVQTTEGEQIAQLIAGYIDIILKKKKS

With “DRREFAKFQSERSRARYEMASNPLYRKPISTHTVDFAFNKFNKSYNGSVD [β5]” the Kd [1] was 41.7 ± 9.5 µM, the Kd (full-length human ARH; [4]) was 5.6 ± 1.4 µM and the Kd (Numb-PTB (20-175); [4]) was 28.5 ± 7.7 µM.

In the case of “DRREFAKFQSERSRARYEMASNPLYRKPISTVVNKSYNGSVD-OH [β5 Δ8 aa, β5 tail peptide carrying a deletion of 8 amino acids between the NPxY and NxxY motifs]”, the “interaction with SNX17 in pulldown” value (SNX17) is reported as “abrogated”, the “interaction with Numb in pulldown” value (Numb) is reported as “binds considerably more” and the “binding of cytoskeletal or clathrin adaptor proteins in pulldown” value [2] is reported as “prevented neither the clustering of β5 in FCLs ([Zuidema et al., 2018]) nor the binding of cytoskeletal or clathrin adaptor proteins to the β5 tail”.

In the case of “EYEFEPDKVDTGAKGTKMAKNEKKFRNYTVHNIWESRKVAP-OH [β1 scrambled peptide, scrambled β1 tail peptide, control, reference compound]”, the “interaction with ARH in pulldown” value (ARH) is reported as “hardly” and the “interaction with Numb in pulldown” value (Numb) is reported as “some background binding”.

For “HDRKEFAKFEEERARAKWDTANNPLYKEATSTFTNITYRGT-OH [β3, synthetic integrin β3 cytoplasmic tail peptide]”, the “interaction with SNX17 in pulldown” value (SNX17) was “interacted strongly”, the “interaction with ARH in pulldown” value (ARH) was “not β1 and β3, bind to Numb and ARH” and the “interaction with Numb in pulldown” value (Numb) was “not β1 and β3, bind to Numb and ARH”. The “binding to ARH by MST (β3)” value (full-length human ARH; [5]) was “no binding; also recorded: unable to detect binding” and the “binding to Numb by MST (β3)” value (Numb-PTB (20-175); [5]) was “no binding; also recorded: unable to detect binding”.

“talin-1 head domain (THD1) (from UniProt P26039 1-405) (domain or fragment)” was tested, and the Kd [3] was 41.7 µM.

B1: 6xhis–ARH (natural protein)
chain: MDALKSAGRALIRSPSLAKQSWGGGGRHRKLPENWTDTRETLLEGMLFSLKYLGMTLVEQPKGEELSAAAIKRIVATAKASGKKLQKVTLKVSPRGIILTDNLTNQLIENVSIYRISYCTADKMHDKVFAYIAQSQHNQSLECHAFLCTKRKMAQAVTLTVAQAFKVAFEFWQVSKEEKEKRDKASQEGGDVLGARQDCTPSLKSLVATGNLLDLEETAKAPLSTVSANTTNMDEVPRPQALSGSSVVWELDDGLDEAFSRLAQSRTNPQVLDTGLTAQDMHYAQCLSPVDWDKPDSSGTEQDDLFSF
B1 was tested, and the Kd [3] was 5.6 µM.

B2: Numb-PTB (20-175) (domain or fragment)
chain: SRPHQWQTDEEGVRTGKCSFPVKYLGHVEVDESRGMHICEDAVKRLKAERKFFKGFFGKTGKKAVKAVLWVSADGLRVVDEKTKDLIVDQTIEKVSFCAPDRNFDRAFSYICRDGTTRRWICHCFMAVKDTGERLSHAVGCAFAACLERKQKREKE
With B2 the Kd [3] was 28.5 µM.
